Columns and labels:
Canis familiaris [1] = experiment: Amount of time during which increase in administered orally in conscious dogs at 0.3 mg/kg; assay type: functional, Canis lupus familiaris; settings: route oral
Canis familiaris [2] = experiment: Maximum increase in dP/dt60 when administered orally in dogs at dose 0.3 mg/kg; assay type: functional, Canis lupus familiaris; settings: route oral
Canis familiaris [3] = experiment: Time after which maximum increase in contractility was observed when administered orally in conscious dogs at 1 mg/kg; assay type: functional, Canis lupus familiaris; settings: route oral
Felis catus [4] = organism: Felis catus; experiment: Effective dose required to produce an increase in dP/dt5 by 1500 mmHg/s in cats; assay type: functional
Rattus norvegicus [5] = organism: Rattus norvegicus; experiment: Effective dose required to produce an increase in dP/dt5 by 1500 mmHg/s in rats; assay type: functional
Rattus norvegicus [6] = experiment: Maximum increase in dP/dt when administered intravenously in rats at 10 mg/kg dose.; assay type: functional; set-up: unit not given here; settings: route intravenous
Felis catus [7] = experiment: Maximum increase in dP/dt when administered intravenously in cats at 0.3 mg/kg dose.; assay type: functional; settings: route intravenous

| SMILES | Duration (Canis familiaris [1]) [h] | Max (Canis familiaris [2]) [mmHg s-1] | Time (Canis familiaris [3]) [min] | ED1.5 (Felis catus [4]) [mg/kg] | ED1.5 (Rattus norvegicus [5]) [mg/kg] | Max (Rattus norvegicus [6]) | Max (Felis catus [7]) [mHg/s] |
| --- | --- | --- | --- | --- | --- | --- | --- |
| CC1(C)C(=O)Nc2ccc(C3=NNC(=O)CC3)cc21 [INDOLIDAN] | > 6 | 2.8 | 45 | – | – | – | – |
| CC1(C)C(=O)Nc2cc3[nH]c(-c4cnccn4)nc3cc21 | – | – | – | 0.04 | 0.1 | 2.6 | 2.7 |

Source: ChEMBL document CHEMBL1124518, “Nonsteroidal cardiotonics. 2. The inotropic activity of linear, tricyclic 5-6-5 fused heterocycles” (1989)
